Experimental data taken from patent publication US20200239530A1, “COMPOUNDS AND METHODS OF MODULATING PROTEIN DEGRADATION” (Vividion Therapeutics, Inc., priority 2017, published 2020).
Where two headings read alike, the source gives them in different places. One block for each compound: values may come before it.

Key:
Test in all cases: Cysteine liganding, probe competition
Assay type in all cases: binding
[1] = target: T1, UniProt Q13356 (Homo sapiens, UniProt Q13356); conditions: read-out: KB05_500 uM_percent_inhibition
T1 construct: 200 μL of lysate containing 5 mg/ml proteome was treated with 2 μL of 100× compound stock; endogenous in cells
From the text: (§1) The following 96-well sample prep protocol was used for sample preparation.

[2] = target: T2, UniProt Q99942 (Homo sapiens, UniProt Q99942)
T2 construct: 200 μL of lysate containing 5 mg/ml proteome was treated with 2 μL of 100× compound stock; endogenous in cells
T2 sequence (Q99942 whole entry, change not shown): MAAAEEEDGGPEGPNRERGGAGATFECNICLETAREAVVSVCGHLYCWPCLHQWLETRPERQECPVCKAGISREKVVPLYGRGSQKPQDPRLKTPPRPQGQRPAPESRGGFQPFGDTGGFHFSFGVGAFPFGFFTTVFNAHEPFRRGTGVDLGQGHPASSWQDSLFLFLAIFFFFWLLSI
From the text: as §1

[3] = target: T3, UniProt Q13309 (Homo sapiens, UniProt Q13309); conditions: read-out: percent_inhibition
T3 construct: 200 μL of lysate containing 5 mg/ml proteome was treated with 2 μL of 100× compound stock; endogenous in cells
From the text: as §1

[4] = target: T4, UniProt P19474 (Homo sapiens, UniProt P19474); conditions: read-out: KB05_100 uM_percent_inhibition
T4 construct: 200 μL of lysate containing 5 mg/ml proteome was treated with 2 μL of 100× compound stock; endogenous in cells
From the text: as §1

[5] = target: T5, UniProt A8MQ27 (Homo sapiens, UniProt A8MQ27); conditions: read-out: percent inhibition
T5 construct: Cells were resuspended in cold PBS on ice and sonicated with a probe sonicator to achieve lysis; endogenous in cells
T5 sequence (A8MQ27 whole entry, change not shown): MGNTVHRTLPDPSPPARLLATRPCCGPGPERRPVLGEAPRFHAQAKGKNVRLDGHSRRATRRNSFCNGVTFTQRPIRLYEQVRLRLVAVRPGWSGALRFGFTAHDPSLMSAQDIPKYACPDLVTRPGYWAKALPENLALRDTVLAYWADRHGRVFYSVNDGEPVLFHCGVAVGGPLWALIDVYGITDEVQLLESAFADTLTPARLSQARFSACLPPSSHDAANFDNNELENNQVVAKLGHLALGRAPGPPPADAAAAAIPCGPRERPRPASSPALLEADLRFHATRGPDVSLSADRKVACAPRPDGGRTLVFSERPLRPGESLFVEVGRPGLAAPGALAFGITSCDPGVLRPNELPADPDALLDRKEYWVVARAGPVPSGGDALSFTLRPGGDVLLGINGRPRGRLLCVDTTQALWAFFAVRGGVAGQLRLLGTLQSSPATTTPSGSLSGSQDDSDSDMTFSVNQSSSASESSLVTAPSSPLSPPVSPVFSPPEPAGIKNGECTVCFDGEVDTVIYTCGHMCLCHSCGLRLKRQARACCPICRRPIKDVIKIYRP
From the text: as §1

[6] = target: T6, UniProt Q8IUQ4 (Homo sapiens, UniProt Q8IUQ4)
T6 construct: 200 μL of lysate containing 5 mg/ml proteome was treated with 2 μL of 100× compound stock; endogenous in cells
T6 sequence (Q8IUQ4 whole entry, change not shown): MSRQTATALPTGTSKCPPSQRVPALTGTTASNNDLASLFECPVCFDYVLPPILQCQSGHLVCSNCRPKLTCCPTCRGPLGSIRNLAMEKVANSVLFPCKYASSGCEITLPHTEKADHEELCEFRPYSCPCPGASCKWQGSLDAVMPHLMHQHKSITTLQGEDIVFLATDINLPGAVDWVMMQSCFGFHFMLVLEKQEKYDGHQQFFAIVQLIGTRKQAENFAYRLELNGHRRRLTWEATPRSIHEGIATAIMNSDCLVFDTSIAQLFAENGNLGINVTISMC
From the text: as §1

[7] = target: T7, UniProt Q6ZMN7 (Homo sapiens, UniProt Q6ZMN7); conditions: read-out: KB05_500 uM_percent_inhibition
T7 construct: 200 μL of lysate containing 5 mg/ml proteome was treated with 2 μL of 100× compound stock; endogenous in cells
From the text: as §1

[8] = target: T8, UniProt Q9C030 (Homo sapiens, UniProt Q9C030); conditions: read-out: KB05_500 uM_percent_inhibition
T8 construct: 200 μL of lysate containing 5 mg/ml proteome was treated with 2 μL of 100× compound stock; endogenous in cells
From the text: as §1

[9] = target: T9, UniProt Q9UPQ7 (Homo sapiens, UniProt Q9UPQ7)
T9 construct: 200 μL of lysate containing 5 mg/ml proteome was treated with 2 μL of 100× compound stock; endogenous in cells
T9 sequence (Q9UPQ7 whole entry, change not shown): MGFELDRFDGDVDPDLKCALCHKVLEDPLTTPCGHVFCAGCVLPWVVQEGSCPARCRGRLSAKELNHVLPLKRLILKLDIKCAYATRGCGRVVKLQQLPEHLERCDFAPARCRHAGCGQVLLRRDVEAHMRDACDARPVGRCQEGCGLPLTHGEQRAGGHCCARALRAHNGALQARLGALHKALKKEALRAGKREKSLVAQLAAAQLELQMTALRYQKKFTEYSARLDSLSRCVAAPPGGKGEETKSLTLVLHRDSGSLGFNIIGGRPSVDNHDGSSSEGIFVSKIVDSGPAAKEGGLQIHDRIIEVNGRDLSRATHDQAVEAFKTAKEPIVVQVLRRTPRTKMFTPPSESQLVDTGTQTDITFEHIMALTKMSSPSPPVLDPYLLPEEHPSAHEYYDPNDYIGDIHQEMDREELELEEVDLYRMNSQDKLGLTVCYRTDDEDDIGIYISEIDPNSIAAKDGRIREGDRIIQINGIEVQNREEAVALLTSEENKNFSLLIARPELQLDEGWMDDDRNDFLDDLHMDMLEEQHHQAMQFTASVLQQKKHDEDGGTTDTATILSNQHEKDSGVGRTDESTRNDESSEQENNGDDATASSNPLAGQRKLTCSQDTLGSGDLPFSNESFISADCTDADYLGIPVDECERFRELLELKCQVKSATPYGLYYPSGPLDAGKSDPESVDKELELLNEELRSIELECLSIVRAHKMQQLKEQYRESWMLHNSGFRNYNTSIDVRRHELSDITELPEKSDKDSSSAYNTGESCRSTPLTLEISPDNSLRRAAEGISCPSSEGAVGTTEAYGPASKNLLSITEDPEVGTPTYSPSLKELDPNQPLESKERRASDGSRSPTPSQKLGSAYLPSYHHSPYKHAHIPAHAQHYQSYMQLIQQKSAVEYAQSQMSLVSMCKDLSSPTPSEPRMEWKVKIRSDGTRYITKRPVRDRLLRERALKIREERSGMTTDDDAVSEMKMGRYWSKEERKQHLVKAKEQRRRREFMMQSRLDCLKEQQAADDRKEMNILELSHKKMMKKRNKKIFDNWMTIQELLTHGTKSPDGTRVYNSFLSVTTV
From the text: as §1

[10] = target: T10, UniProt Q86YT6 (Homo sapiens, UniProt Q86YT6); conditions: read-out: percent inhibition
T10 construct: Cells were resuspended in cold PBS on ice and sonicated with a probe sonicator to achieve lysis; endogenous in cells
From the text: as §1

[11] = target: T11, UniProt O14512 (Homo sapiens, UniProt O14512); conditions: read-out: percent_inhibition
T11 construct: 200 μL of lysate containing 5 mg/ml proteome was treated with 2 μL of 100× compound stock; endogenous in cells
From the text: as §1

[12] = target: T12, UniProt Q9NS56 (Homo sapiens, UniProt Q9NS56)
T12 construct: 200 μL of lysate containing 5 mg/ml proteome was treated with 2 μL of 100× compound stock; endogenous in cells
T12 sequence (Q9NS56 whole entry, change not shown): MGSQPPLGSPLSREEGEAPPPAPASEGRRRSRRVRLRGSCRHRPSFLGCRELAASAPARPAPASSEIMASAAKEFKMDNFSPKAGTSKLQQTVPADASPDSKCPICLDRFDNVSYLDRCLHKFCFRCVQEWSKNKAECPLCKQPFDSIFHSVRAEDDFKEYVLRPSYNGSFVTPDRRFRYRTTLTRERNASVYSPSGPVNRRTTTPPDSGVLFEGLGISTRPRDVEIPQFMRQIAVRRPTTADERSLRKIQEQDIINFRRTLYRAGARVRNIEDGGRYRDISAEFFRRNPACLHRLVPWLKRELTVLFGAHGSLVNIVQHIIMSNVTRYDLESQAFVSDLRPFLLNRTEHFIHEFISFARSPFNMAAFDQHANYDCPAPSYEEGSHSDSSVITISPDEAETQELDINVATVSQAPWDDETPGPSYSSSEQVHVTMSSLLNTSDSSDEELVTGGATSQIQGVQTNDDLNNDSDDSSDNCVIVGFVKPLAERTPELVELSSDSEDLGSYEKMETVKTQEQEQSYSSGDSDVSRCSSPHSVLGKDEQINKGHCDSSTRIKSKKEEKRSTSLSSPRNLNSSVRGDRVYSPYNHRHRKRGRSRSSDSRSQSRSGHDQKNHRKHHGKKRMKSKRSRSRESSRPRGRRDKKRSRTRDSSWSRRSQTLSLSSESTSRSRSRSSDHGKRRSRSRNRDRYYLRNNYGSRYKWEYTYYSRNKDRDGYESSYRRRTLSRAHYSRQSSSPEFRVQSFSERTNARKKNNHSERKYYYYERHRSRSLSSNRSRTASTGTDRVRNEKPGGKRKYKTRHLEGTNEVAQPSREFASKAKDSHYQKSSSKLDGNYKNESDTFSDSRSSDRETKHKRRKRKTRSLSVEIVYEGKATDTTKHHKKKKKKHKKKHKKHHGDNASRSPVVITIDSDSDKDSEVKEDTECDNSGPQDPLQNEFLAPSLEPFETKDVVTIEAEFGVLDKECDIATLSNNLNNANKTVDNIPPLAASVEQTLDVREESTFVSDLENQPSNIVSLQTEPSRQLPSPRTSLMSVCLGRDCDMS
From the text: as §1

[13] = target: T13, UniProt Q9BUZ4 (Homo sapiens, UniProt Q9BUZ4); conditions: 100 uM
T13 construct: 200 μL of lysate containing 5 mg/ml proteome was treated with 2 μL of 100× compound stock; endogenous in cells
From the text: as §1

[14] = target: T14, UniProt Q86TM6 (Homo sapiens, UniProt Q86TM6); conditions: 100 uM
T14 construct: 200 μL of lysate containing 5 mg/ml proteome was treated with 2 μL of 100× compound stock; endogenous in cells
From the text: as §1

[15] = target: T15, UniProt O75382 (Homo sapiens, UniProt O75382); conditions: 100 uM
T15 construct: 200 μL of lysate containing 5 mg/ml proteome was treated with 2 μL of 100× compound stock; endogenous in cells
From the text: as §1

[16] = target: T16, UniProt Q15025 (Homo sapiens, UniProt Q15025); conditions: 100 uM
T16 construct: 200 μL of lysate containing 5 mg/ml proteome was treated with 2 μL of 100× compound stock; endogenous in cells
From the text: as §1

[17] = target: T17, UniProt Q8NG27 (Homo sapiens, UniProt Q8NG27); conditions: 100 uM
T17 construct: 200 μL of lysate containing 5 mg/ml proteome was treated with 2 μL of 100× compound stock; endogenous in cells
From the text: as §1

[18] = target: T18, UniProt Q9H000 (Homo sapiens, UniProt Q9H000); conditions: 100 uM
T18 construct: Cells were resuspended in cold PBS on ice and sonicated with a probe sonicator to achieve lysis; endogenous in cells
T18 sequence (Q9H000 whole entry, change not shown): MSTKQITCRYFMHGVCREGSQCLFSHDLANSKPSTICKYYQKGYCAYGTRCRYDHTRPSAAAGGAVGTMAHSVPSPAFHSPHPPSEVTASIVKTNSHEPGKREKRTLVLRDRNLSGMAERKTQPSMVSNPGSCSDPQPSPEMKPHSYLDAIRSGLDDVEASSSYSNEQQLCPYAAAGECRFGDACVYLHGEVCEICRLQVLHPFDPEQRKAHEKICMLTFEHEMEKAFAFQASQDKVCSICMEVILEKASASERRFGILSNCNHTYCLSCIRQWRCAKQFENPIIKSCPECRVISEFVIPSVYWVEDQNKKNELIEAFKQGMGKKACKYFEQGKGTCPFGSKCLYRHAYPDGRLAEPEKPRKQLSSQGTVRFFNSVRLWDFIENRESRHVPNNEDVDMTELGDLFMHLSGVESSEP
From the text: as §1

[19] = target: T19, UniProt Q5U5Q3 (Homo sapiens, UniProt Q5U5Q3); conditions: read-out: percent inhibition
T19 construct: Cells were resuspended in cold PBS on ice and sonicated with a probe sonicator to achieve lysis; endogenous in cells
From the text: as §1

[20] = target: T20, UniProt O00635 (Homo sapiens, UniProt O00635)
T20 construct: 200 μL of lysate containing 5 mg/ml proteome was treated with 2 μL of 100× compound stock; endogenous in cells
T20 sequence (O00635 whole entry, change not shown): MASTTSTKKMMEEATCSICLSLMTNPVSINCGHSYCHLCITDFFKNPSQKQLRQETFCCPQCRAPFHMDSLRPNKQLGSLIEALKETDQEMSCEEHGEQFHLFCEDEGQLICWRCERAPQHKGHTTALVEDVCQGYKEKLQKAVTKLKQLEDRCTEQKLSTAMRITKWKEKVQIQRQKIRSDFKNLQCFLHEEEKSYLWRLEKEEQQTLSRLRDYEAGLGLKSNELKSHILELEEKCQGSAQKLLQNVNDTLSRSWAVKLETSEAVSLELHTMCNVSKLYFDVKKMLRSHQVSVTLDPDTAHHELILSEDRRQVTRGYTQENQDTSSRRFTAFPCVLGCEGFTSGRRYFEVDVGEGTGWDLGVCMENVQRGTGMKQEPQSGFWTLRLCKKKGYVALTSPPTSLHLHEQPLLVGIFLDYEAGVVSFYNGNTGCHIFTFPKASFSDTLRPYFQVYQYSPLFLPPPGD
From the text: as §1

[21] = target: T21, UniProt E7ERA6 (Homo sapiens, UniProt E7ERA6)
T21 construct: 200 μL of lysate containing 5 mg/ml proteome was treated with 2 μL of 100× compound stock; endogenous in cells
T21 sequence (E7ERA6 whole entry, change not shown): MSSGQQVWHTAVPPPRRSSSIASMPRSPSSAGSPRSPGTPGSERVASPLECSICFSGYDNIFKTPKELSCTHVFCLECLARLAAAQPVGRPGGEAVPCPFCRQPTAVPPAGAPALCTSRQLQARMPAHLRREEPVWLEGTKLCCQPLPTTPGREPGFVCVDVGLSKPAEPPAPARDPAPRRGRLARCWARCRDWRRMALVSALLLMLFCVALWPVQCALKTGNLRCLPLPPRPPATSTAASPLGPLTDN
From the text: as §1

[22] = target: T22, UniProt P51948 (Homo sapiens, UniProt P51948); conditions: read-out: percent inhibition
T22 construct: Cells were resuspended in cold PBS on ice and sonicated with a probe sonicator to achieve lysis; endogenous in cells
T22 sequence (P51948 whole entry, change not shown): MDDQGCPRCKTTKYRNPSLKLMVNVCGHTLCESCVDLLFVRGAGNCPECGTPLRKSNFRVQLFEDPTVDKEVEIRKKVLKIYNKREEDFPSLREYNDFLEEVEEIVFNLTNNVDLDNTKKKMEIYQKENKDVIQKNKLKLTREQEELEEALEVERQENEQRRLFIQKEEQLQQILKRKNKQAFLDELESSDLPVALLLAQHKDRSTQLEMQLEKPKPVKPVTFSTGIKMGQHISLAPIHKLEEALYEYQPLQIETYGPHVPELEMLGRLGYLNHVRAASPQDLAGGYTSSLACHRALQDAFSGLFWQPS
From the text: as §1

[23] = target: T23, UniProt Q7L0R7 (Homo sapiens, UniProt Q7L0R7)
T23 construct: 200 μL of lysate containing 5 mg/ml proteome was treated with 2 μL of 100× compound stock; endogenous in cells
T23 sequence (Q7L0R7 whole entry, change not shown): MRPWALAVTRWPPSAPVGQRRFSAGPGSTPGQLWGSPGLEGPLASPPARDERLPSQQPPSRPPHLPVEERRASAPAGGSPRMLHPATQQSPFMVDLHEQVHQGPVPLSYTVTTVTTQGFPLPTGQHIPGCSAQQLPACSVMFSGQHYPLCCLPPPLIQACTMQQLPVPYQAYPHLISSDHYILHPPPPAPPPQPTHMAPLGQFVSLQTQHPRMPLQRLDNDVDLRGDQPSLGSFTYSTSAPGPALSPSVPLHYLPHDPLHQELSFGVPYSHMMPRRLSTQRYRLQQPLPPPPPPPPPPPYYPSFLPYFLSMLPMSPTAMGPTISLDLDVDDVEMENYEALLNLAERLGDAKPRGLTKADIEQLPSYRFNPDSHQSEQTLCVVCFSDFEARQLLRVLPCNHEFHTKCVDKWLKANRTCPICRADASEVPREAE
From the text: as §1

[24] = target: T24, UniProt Q6Q0C0 (Homo sapiens, UniProt Q6Q0C0)
T24 construct: 200 μL of lysate containing 5 mg/ml proteome was treated with 2 μL of 100× compound stock; endogenous in cells
T24 sequence (Q6Q0C0 1-670): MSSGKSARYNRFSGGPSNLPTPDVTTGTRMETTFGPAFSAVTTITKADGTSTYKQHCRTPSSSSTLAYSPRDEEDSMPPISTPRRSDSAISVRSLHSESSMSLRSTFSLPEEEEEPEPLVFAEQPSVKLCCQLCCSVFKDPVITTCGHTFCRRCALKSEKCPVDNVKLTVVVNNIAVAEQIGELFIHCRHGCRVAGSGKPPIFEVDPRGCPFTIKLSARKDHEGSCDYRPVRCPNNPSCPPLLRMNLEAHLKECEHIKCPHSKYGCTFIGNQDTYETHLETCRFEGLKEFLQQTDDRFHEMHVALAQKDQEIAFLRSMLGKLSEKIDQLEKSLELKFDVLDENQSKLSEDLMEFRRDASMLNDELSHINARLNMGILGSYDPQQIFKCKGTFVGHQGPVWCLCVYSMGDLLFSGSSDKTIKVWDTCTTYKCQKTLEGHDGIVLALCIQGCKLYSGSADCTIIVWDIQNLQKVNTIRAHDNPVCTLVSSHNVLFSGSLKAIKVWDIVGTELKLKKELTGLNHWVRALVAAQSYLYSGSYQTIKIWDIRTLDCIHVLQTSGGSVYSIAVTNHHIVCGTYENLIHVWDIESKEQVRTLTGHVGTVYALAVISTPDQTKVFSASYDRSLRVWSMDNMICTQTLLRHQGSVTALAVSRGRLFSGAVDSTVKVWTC
From the text: as §1

[25] = target: T25, UniProt Q13114 (Homo sapiens, UniProt Q13114); conditions: read-out: percent_inhibition
T25 construct: 200 μL of lysate containing 5 mg/ml proteome was treated with 2 μL of 100× compound stock; endogenous in cells
From the text: as §1

inhibition at 500 µM [1]: 69% | percent_inhibition ([2]; 100 uM): 15% | inhibition at 100 µM ([2]; read-out: percent_inhibition): 14% | inhibition at 100 µM [3]: 10% | inhibition at 100 µM [4]: 39% | inhibition at 500 µM [5]: 44% | percent_inhibition ([6]; 100 uM): 17% | inhibition at 100 µM ([6]; read-out: percent_inhibition): 9% | inhibition at 500 µM [7]: 1% | inhibition at 500 µM [8]: 53% | KB05_100 uM_percent_inhibition ([9]; 100 uM): 24% | inhibition at 100 µM ([9]; read-out: KB05_100 uM_percent_inhibition): 20% | inhibition at 100 µM [10]: 31% | inhibition at 500 µM [11]: 89% | percent_inhibition ([12]; 100 uM): 11% | inhibition at 100 µM ([12]; read-out: percent_inhibition): 13%
SMILES: C=CC(=O)N(c1ccccc1)c1ccc(Br)cc1 [KB05]

SMILES: O=C(CCl)Nc1cc(C(F)(F)F)cc(C(F)(F)F)c1 [KBO3]
percent_inhibition [13]: 30% | percent_inhibition [14]: 19% | KB03_100 uM_percent_inhibition [15]: 45% | percent_inhibition [16]: 3% | KB03_100 uM_percent_inhibition [17]: 16%

SMILES: COc1ccc2c(c1)CCCN2C(=O)CCl [KB02]
percent inhibition [18]: 24% | inhibition at 100 µM [19]: 5% | KB02_100 uM_percent_inhibition ([20]; 100 uM): 7% | inhibition at 100 µM ([20]; read-out: KB02_100 uM_percent_inhibition): 8% | percent_inhibition ([21]; 500 uM): 38% | inhibition at 500 µM ([21]; read-out: percent_inhibition): 35% | inhibition at 100 µM [22]: 3% | inhibition at 100 µM ([23]; 100 uM, read-out: percent_inhibition): 44% | percent_inhibition ([23]; 500 uM): 42% | inhibition at 500 µM ([23]; 500 uM, read-out: percent_inhibition): 41% | inhibition at 100 µM ([24]; 100 uM, read-out: KB02_100 uM_percent_inhibition): 3% | inhibition at 500 µM ([24]; 500 uM, read-out: KB02_500 uM_percent_inhibition): 47% | inhibition at 100 µM ([24]; read-out: percent_inhibition): 1% | inhibition at 100 µM [25]: 33%
